# How the values were obtained:
# Format in all cases: binding, mice
# [1] = system: Monoclonal Ab #2 (monoclonal antibody to taxol); experiment: Indirect competitive microtiter plate immunoassay (ELISA), Monoclonal Ab #2
# Description: (§1) The assay was performed by incubating 50 μL of the analytes to be measured with 50 μL of antibody (produced in example 4) diluted to a titer determined in example 8a. […] Following this incubation the wells of the plate were washed three times with 0.02 M TRIS, 0.9% NaCl, 0.5% Tween-80 and 0.001% Thimerosal, pH 7.8 to remove any material that was not bound. […] To develop a measurable color in the wells, washing was followed by the addition of 100 μL of TMB (TMB Liquid Substrate, Sigma), a substrate for HRP, to develop color in a 10 minute incubation with shaking at room temperature. Following the incubation for color development, 50 μL of stop solution (1.5% sodium fluoride in di H2O) was added to each well to stop the color development and after 10 seconds of shaking the absorbance was determined at 650 nm (Molecular Devices Plate Reader). The amount of antibody in a well was proportional to the absorbance measured and inversely proportional to the amount of taxol in the sample. The absorbance of the color in the wells containing analyte is compared to that with no analyte and a standard curve is generated. […] The cross-reactivity with 6-α-hydroxypaclitaxel was less than 60%. […]
# (§2) The assay was performed by incubating 50 μL of the analytes to be measured with 50 μL of antibody (produced in example 4) diluted to a titer determined in example 8a. […] Following this incubation the wells of the plate were washed three times with 0.02 M TRIS, 0.9% NaCl, 0.5% Tween-80 and 0.001% Thimerosal, pH 7.8 to remove any material that was not bound. […] This secondary antibody was capable of binding specifically with murine immunoglobulins producing a colored product when incubated with a substrate. […] To develop a measurable color in the wells, washing was followed by the addition of 100 μL of TMB (TMB Liquid Substrate, Sigma), a substrate for HRP, to develop color in a 10 minute incubation with shaking at room temperature. Following the incubation for color development, 50 μL of stop solution (1.5% sodium fluoride in di H2O) was added to each well to stop the color development and after 10 seconds of shaking the absorbance was determined at 650 nm (Molecular Devices Plate Reader). The amount of antibody in a well was proportional to the absorbance measured and inversely proportional to the amount of taxol in the sample. The absorbance of the color in the wells containing analyte is compared to that with no analyte and a standard curve is generated. […]
# [2] = system: Monoclonal Ab #1 (monoclonal antibody to taxol); experiment: Indirect competitive microtiter plate immunoassay (ELISA), Monoclonal Ab #1
# Description: as §1, §2
# [3] = system: taxol polyclonal antibodies; experiment: Indirect competitive microtiter plate immunoassay (ELISA), polyclonal antibodies to taxol (pool of antisera); details: for Cross-reactivity relative to taxol: polyclonal antibody pool
# Description: as §1, §2
# [4] = plate sensitized with Taxol Derivative 5
# [5] = plate sensitized with Taxol Derivative 8
# [6] = microtiter plate sensitized with Taxol Derivative 5 (example 9a)
# [7] = microtiter plate sensitized with Taxol Derivative 8 (example 9b)
Structure (SMILES),"Cross-reactivity relative to taxol [1, 4]","Cross-reactivity relative to taxol [1, 5] [%]","Cross-reactivity relative to taxol [2, 4] [%]","Cross-reactivity relative to taxol [2, 5] [%]","Cross-reactivity relative to taxol [3, 6]","Cross-reactivity relative to taxol [3, 7] [%]",IC50 ([3]; antisera of the four individual mice combined in the pool) [µg/mL]
"CC(=O)O[C@H]1C(=O)[C@@]2(C)[C@H]([C@H](OC(=O)c3ccccc3)[C@]3(O)C[C@H](OC(=O)[C@H](O)[C@@H](NC(=O)c4ccccc4)c4ccc(O)cc4)C(C)=C1C3(C)C)[C@]1(OC(C)=O)CO[C@@H]1C[C@@H]2O [3′-p-Hydroxypaclitaxel, 3′-p-hydroxypaclitaxel]",≦2.3%,1.5,5.9,8.1,≦10%,0.57,
"CC(=O)O[C@H]1C(=O)[C@@]2(C)[C@H]([C@H](OC(=O)c3ccccc3)[C@]3(O)C[C@H](OC(=O)[C@H](O)[C@@H](NC(=O)c4ccccc4)c4ccccc4)C(C)=C1C3(C)C)[C@]1(OC(C)=O)CO[C@@H]1[C@@H](O)[C@@H]2O [6-α-Hydroxypaclitaxel, 6-α-hydroxypaclitaxel]",≦4.6%,2.9,5.1,6.5,<58%,1.60,
CC(=O)O[C@H]1C(=O)[C@@]2(C)[C@H]([C@H](OC(=O)c3ccccc3)[C@]3(O)C[C@H](O)C(C)=C1C3(C)C)[C@]1(OC(C)=O)CO[C@@H]1C[C@@H]2O [Baccatin III],≦0.19%,0.13,0.13,0.17,0.10%,0.10,
CC(=O)O[C@@]12CO[C@@H]1C[C@H](O)[C@@]1(C)C(=O)[C@H](O)C3=C(C)[C@@H](OC(=O)[C@H](O)[C@@H](NC(=O)OC(C)(C)C)c4ccccc4)C[C@@](O)([C@@H](OC(=O)c4ccccc4)[C@H]21)C3(C)C [Docetaxel],101%,85,76,77,≦5%,0.16,
"CC(=O)O[C@H]1C(=O)[C@@]2(C)[C@H]([C@H](OC(=O)c3ccccc3)[C@]3(O)C[C@H](OC(=O)[C@H](O)[C@@H](NC(=O)c4ccccc4)c4ccccc4)C(C)=C1C3(C)C)[C@]1(OC(C)=O)CO[C@@H]1C[C@@H]2O [Taxol (Paclitaxel), Taxol]",,,,,,,< 0.02

# From patent US7175993B2 (Saladax Biomedical, Inc., priority 2004, dated 2007)
